Data reported in patent publication US5338869A, “Hydroxyphenylpropionic ester having novel crystal structure” (Sumitomo Chemical Company, Limited, priority 1992, dated 1994).

How the values were obtained:
Format in all cases: physicochemical
[1] = Angle of spatula of crystals
[2] = Bulk specific gravity (packed state)
[3] = Angle of repose of crystals
[4] = Solubility in organic solvents at 20° C.
[5] = Hygroscopicity: moisture content after exposure to 100% relative humidity (Karl Fischer method); settings: for Hygroscopicity (Water content in % by weight): room temperature, relative humidity 100%
Source text: Consequently, the crystals can be used conveniently and advantageously with no additional treatment, such as re-drying and moisture-proof packing, even in such uses as the production of polyurethane, which is susceptible to the influence of moisture.

Angle of Spatula [1]	Bulk Specific Gravity [2]	Angle of Repose [3]	Solubility at 20° C. ([4]; Cyclohexane)	Solubility at 20° C. ([4]; Methanol)	Solubility at 20° C. ([4]; Toluene)	Hygroscopicity (Water content in % by weight) ([5]; exposure period 0 Days)	Hygroscopicity (Water content in % by weight) ([5]; exposure period 1 Day)	Hygroscopicity (Water content in % by weight) ([5]; exposure period 50 Days)	Hygroscopicity (Water content in % by weight) ([5]; exposure period 100 Days)	Compound	solubility in organic solvents (in words) ([4]; compared with the δ-crystals and the αβ-crystals)	hygroscopicity (in words) ([5]; compared with the prior αβ- and δ-crystals)
58 °	0.66	47 °								Cc1cc(CCC(=O)OCC(C)(C)C2OCC3(CO2)COC(C(C)(C)COC(=O)CCc2cc(C)c(O)c(C(C)(C)C)c2)OC3)cc(C(C)(C)C)c1O (stereo not shown) [Example 3, 3,9-bis[2-{3-(3-t-butyl-4-hydroxy-5-methylphenyl)propionyloxy}-1,1-dimethylethyl]-2,4,8,10-tetraoxaspiro[5.5]undecane]		
58 °	0.60	45 °								Cc1cc(CCC(=O)OCC(C)(C)C2OCC3(CO2)COC(C(C)(C)COC(=O)CCc2cc(C)c(O)c(C(C)(C)C)c2)OC3)cc(C(C)(C)C)c1O (stereo not shown) [Example 2, 3,9-bis[2-{3-(3-t-butyl-4-hydroxy-5-methylphenyl)propionyloxy}-1,1-dimethylethyl]-2,4,8,10-tetraoxaspiro[5.5]undecane]		
			0.06 g/100 g solvent	9 g/100 g solvent	15 g/100 g solvent	0.10 % by weight	0.47 % by weight	0.50 % by weight	0.45 % by weight	Cc1cc(CCC(=O)OCC(C)(C)C2OCC3(CO2)COC(C(C)(C)COC(=O)CCc2cc(C)c(O)c(C(C)(C)C)c2)OC3)cc(C(C)(C)C)c1O (stereo not shown) [δ-Crystal, 3,9-bis[2-{3-(3-t-butyl-4-hydroxy-5-methylphenyl)propionyloxy}-1,1-dimethylethyl]-2,4,8,10-tetraoxaspiro[5.5]undecane, reference compound]		
65 °	0.43	50 °								Cc1cc(CCC(=O)OCC(C)(C)C2OCC3(CO2)COC(C(C)(C)COC(=O)CCc2cc(C)c(O)c(C(C)(C)C)c2)OC3)cc(C(C)(C)C)c1O (stereo not shown) [Comparative Example 1, 3,9-bis[2-{3-(3-t-butyl-4-hydroxy-5-methylphenyl)propionyloxy}-1,1-dimethylethyl]-2,4,8,10-tetraoxaspiro[5.5]undecane, reference compound]		
57 °	0.59	45 °								Cc1cc(CCC(=O)OCC(C)(C)C2OCC3(CO2)COC(C(C)(C)COC(=O)CCc2cc(C)c(O)c(C(C)(C)C)c2)OC3)cc(C(C)(C)C)c1O (stereo not shown) [Example 1, 3,9-bis[2-{3-(3-t-butyl-4-hydroxy-5-methylphenyl)propionyloxy}-1,1-dimethylethyl]-2,4,8,10-tetraoxaspiro[5,5]undecane]		
			0.02 g/100 g solvent	4 g/100 g solvent	9 g/100 g solvent	0.04 % by weight	0.06 % by weight	0.05 % by weight	0.05 % by weight	Cc1cc(CCC(=O)OCC(C)(C)C2OCC3(CO2)COC(C(C)(C)COC(=O)CCc2cc(C)c(O)c(C(C)(C)C)c2)OC3)cc(C(C)(C)C)c1O (stereo not shown) [ε-Crystal, 3,9-bis[2-{3-(3-t-butyl-4-hydroxy-5-methylphenyl)propionyloxy}-1,1-dimethylethyl]-2,4,8,10-tetraoxaspiro[5.5]undecane]	lower solubility in organic solvents than the δ-crystals and the αβ-crystals	smaller in hygroscopicity than the prior αβ- and δ-crystals
74 °	0.40	53 °								Cc1cc(CCC(=O)OCC(C)(C)C2OCC3(CO2)COC(C(C)(C)COC(=O)CCc2cc(C)c(O)c(C(C)(C)C)c2)OC3)cc(C(C)(C)C)c1O (stereo not shown) [Comparative Example 2, 3,9-bis[2-{3-(3-t-butyl-4-hydroxy-5-methylphenyl)propionyloxy}-1,1-dimethylethyl]-2,4,8,10-tetraoxaspiro[5.5]undecane, reference compound]		
